{"source": "patent US10485881B2", "about": "“Nanoparticle drug conjugates” (Memorial Sloan Kettering Cancer Center, priority 2014, dated 2019)", "key": {"trypsin": {"target": "T1, trypsin (Bos taurus, UniProt P00760)", "T1 construct": "purchased Sigma-Aldrich", "T1 sequence (P00760 24-246)": "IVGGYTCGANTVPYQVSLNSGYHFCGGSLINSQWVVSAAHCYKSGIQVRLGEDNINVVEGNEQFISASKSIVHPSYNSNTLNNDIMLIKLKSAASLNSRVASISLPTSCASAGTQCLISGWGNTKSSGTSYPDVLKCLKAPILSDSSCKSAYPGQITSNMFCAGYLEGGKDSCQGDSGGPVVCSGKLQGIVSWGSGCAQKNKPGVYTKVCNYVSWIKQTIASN", "assay": "Drug release assay with trypsin", "format": "biochemical, bovine", "conditions": "for half-life at 25 μM: bovine, pH 7.2, free linker-drug constructs, HPLC at 348 nm, 37° C., phosphate buffer pH 7.2, read-out: Trypsin t1/2 (time when 50% of the drug is released from linker); for Time to complete hydrolysis / complete release of drug with trypsin: free linker-drug constructs, monitored by HPLC or LCMS", "experimental": "Drug Release Assays with Trypsin:\nFor analysis, 70 μL portions were removed and quenched with acid (HCl) at specified time points (e.g., 5, 15, 30, 60, 120 minutes or longer) then run on HPLC/LCMS. NDCs were stored in water at 4° C. Trypsin stocks were prepared as follows: 1 mg of trypsin was dissolved in 1 mL water, aliquoted, then immediately flash frozen and stored at −80° C. for up to four weeks. Enzyme activity was tested prior to drug release assay using the substrate Z-Arg-Arg-para-nitro-aniline. The % Free Drug (FIGS. 3 and S3) is the quantity of free drug divided by the initial quantity of drug loaded for the linker-drug construct or NDC. The quantity of free drug is determined by area of the HPLC peak corresponding to the released drug at 348 nm. The quantity of drug loaded is the area of the HPLC peak, at 348 nm, for the linker-drug construct or NDC prior to enzyme treatment. As the C'dot-(Cy5)-PEG-mal has background absorbance at 348 nm, a background subtraction for the NDC is necessary. All buffers and solutions were prepared using ultra-pure water (18 Me-cm resistivity)."}, "cathepsin B": {"target": "cathepsin B (Homo sapiens, UniProt P07858)", "assay": "Drug release assay with cathepsin B", "format": "biochemical", "conditions": "free linker-drug constructs; for Hydrolysis / drug release in the presence of cathepsin B: monitored by HPLC or LCMS; for half-life at 25 μM: HPLC at 348 nm, sodium acetate buffer pH 5.0, NH = no hydrolysis, read-out: Cathepsin B t1/2 (time when 50% of the drug is released from linker)", "experimental": "Drug Release Assays with Cathepsin B:\nFor analysis, 70 μL portions were removed and quenched with acid (HCl) at specified time points (e.g., 5, 15, 30, 60, 120 minutes or longer) then run on HPLC/LCMS. NDCs were stored in water at 4° C. […] Enzyme activity was tested prior to drug release assay using the substrate Z-Arg-Arg-para-nitro-aniline. The % Free Drug (FIGS. 4A, 4B, 6A and 6B) is the quantity of free drug divided by the initial quantity of drug loaded for the linker-drug construct or NDC, as described in the previous paragraph. All buffers and solutions were prepared using ultra-pure water (18 MΩ-cm resistivity)."}, "[1]": {"target": "EGFR (phospho-Tyr168) in H1650 cells (Homo sapiens, UniProt P00533, DEL746-750)", "assay": "PhosphoEGFR assay with H1650 cells (western blot)", "conditions": "1 and 10 μM, compared with gefitinib", "method": "Serum starved cells were incubated with each compound over a period of 18 hours, then subject to EGF stimulation.\nPhosphoEGFR Assay with H1650 Cells:\nH1650 cells were seeded (1.5 million cells) in 6-well plates with 2 ml of 10% FBS DEM medium and grown for 24 hrs. Cells were washed with 1 mL of serum free DEM medium, then incubated with gefitinib or NDCs at indicated concentrations overnight (18 hrs). Cells were then treated with 50 ng/mL EGF for 5 minutes, then washed with 1 mL of PBS. […] 1 mL of 10% FBS DEM medium was added to wells, and cells were transferred to 15 mL conical tubes containing 10 mL of 10% FBS DEM medium. Cells were spun down at 3000 rpm for 5 minutes at 4° C. The cell pellets were washed with 1 mL cold PBS, transferred to 1.5 mL tubes, and spun down. PBS was decanted and 70 μL of RIPA (containing protease and phosphatase inhibitors) was added to the pellet, titurated, and incubated for 10 minutes on ice. Tubes were spun at maximum speed for 10 minutes at 4° C. Lysate was transferred to new 1.5 ml tubes and stored at −80° C. Protein concentrations were determined by the Bradford assay. Western blots were run on a Life Technologies apparatus, using Novex 8% tris-glycine gels (1.5 mm×15 wells), tris-glycine SDS running buffer, NuPAGE transfer buffer, 0.1% Tween-20 in 1×TBS washing buffer, and 5% milk in the washing buffer as the blocking buffer. […]"}}, "note": "“Also recorded” adds a separate entry of the source. Like-named read-outs stand apart in the source and are kept apart here.", "data": [{"molecule": "COc1cc2ncnc(Nc3ccc(F)c(Cl)c3)c2cc1OCCCNC(=O)[C@H](CCCNC(=N)N)NC(=O)[C@H](Cc1ccccc1)NC(=O)CCOCCOCCNC(=O)CCOCCOCCNC(=O)CCOCCOCCNC(=O)CS", "note": "[Phe-Arg-APdMG (3), Mercaptoacetamido-(dPEG2)3-Phe-Arg-APdMG]", "values": [{"measurement": "half-life at 25 μM", "setting": "trypsin", "result": 9, "unit": "min"}, {"measurement": "Time to complete hydrolysis / complete release of drug with trypsin", "setting": "trypsin", "result": "≤ 60", "unit": "min"}, {"measurement": "Hydrolysis / drug release in the presence of cathepsin B", "setting": "cathepsin B", "result": "no hydrolysis was observed; also recorded: no drug release was observed"}]}, {"molecule": "COc1cc2ncnc(Nc3ccc(F)c(Cl)c3)c2cc1OCCCNC(=O)CCOCCOCCNC(=O)[C@H](CCCNC(=N)N)NC(=O)[C@H](Cc1ccccc1)NC(=O)CCOCCOCCNC(=O)CCOCCOCCNC(=O)CCOCCOCCNC(=O)CS", "note": "[Phe-Arg-dPEG2APdMG (4), Mercaptoacetamido-(dPEG2)3-Phe-Arg-dPEG2APdMG]", "values": [{"measurement": "half-life at 25 μM", "setting": "trypsin", "result": "≤ 2", "unit": "min"}, {"measurement": "Time to complete hydrolysis / complete release of drug with trypsin", "setting": "trypsin", "result": 10, "unit": "min"}, {"measurement": "half-life at 25 μM", "setting": "cathepsin B", "result": 110, "unit": "min"}, {"measurement": "Hydrolysis / drug release in the presence of cathepsin B", "setting": "cathepsin B", "result": "completely hydrolyzed"}]}, {"molecule": "COc1cc2ncnc(Nc3ccc(F)c(Cl)c3)c2cc1OCCCNC(=O)OCc1ccc(NC(=O)[C@H](CCCCN)NC(=O)[C@H](Cc2ccccc2)NC(=O)CCOCCOCCOCCOCCOCCOCCOCCOCCS)cc1", "note": "[Phe-Lys-PABC-APdMG (5), HS-dPEG8-Phe-Lys-PABC-aminopropyl-dMG]", "values": [{"measurement": "half-life at 25 μM", "setting": "trypsin", "result": "< 1", "unit": "min"}, {"measurement": "Time to complete hydrolysis / complete release of drug with trypsin", "setting": "trypsin", "result": 10, "unit": "min"}, {"measurement": "half-life at 25 μM", "setting": "cathepsin B; cathepsin B (isolated enzyme)", "result": "< 1", "unit": "min"}]}, {"molecule": "Amino-dPEG2-aminopropyl-dMG [dPEG2APdMG 2]", "values": [{"measurement": "Inhibition of phospho-Tyr168 in EGFR", "setting": "[1]", "result": "reduced activity"}]}]}
